The NIST ThermoML archive (doi:10.1016/j.jct.2017.12.015)
± gives the expanded uncertainty stated by the source.

Experiments:
[1] = refractive index (Na D-line) (dimensionless); settings: 298 K; 101.33 kPa; Liquid; Standard Abbe refractometry
[2] = Liquid, Ebulliometric method (Recirculating still)

For CC1CCCO1 (configuration not stated) [2-methyltetrahydrofuran], the refractive index [1] was 1.40299 ± 0.001, the “vapor or sublimation pressure” value ([2]; 323.22 K) was 36.4 ± 0.3 kPa and the “vapor or sublimation pressure” value ([2]; 327.67 K) was 43 ± 0.3 kPa. The “vapor or sublimation pressure” value ([2]; 337.97 K) was 62.1 ± 0.3 kPa, the “vapor or sublimation pressure” value ([2]; 341.54 K) was 70.1 ± 0.3 kPa and the “vapor or sublimation pressure” value ([2]; 347.21 K) was 84.4 ± 0.3 kPa. For the same molecule, the “vapor or sublimation pressure” value ([2]; 350.53 K) was 93.8 ± 0.4 kPa and the “vapor or sublimation pressure” value ([2]; 352.84 K) was 100.8 ± 0.4 kPa.
With O [water] the refractive index [1] was 1.3325 ± 0.001.
Molecule O=Cc1ccco1 [2-furaldehyde] has a refractive index [1] of 1.52364 ± 0.001.
For COC1CCCC1 [methoxycyclopentane], the refractive index [1] was 1.41833 ± 0.001, the “vapor or sublimation pressure” value ([2]; 340.92 K) was 29.4 ± 0.2 kPa and the “vapor or sublimation pressure” value ([2]; 345.38 K) was 34.6 ± 0.2 kPa. The “vapor or sublimation pressure” value ([2]; 350.4 K) was 41.4 ± 0.3 kPa, the “vapor or sublimation pressure” value ([2]; 356.3 K) was 50.7 ± 0.3 kPa and the “vapor or sublimation pressure” value ([2]; 363.57 K) was 64.4 ± 0.3 kPa. For the same molecule, the “vapor or sublimation pressure” value ([2]; 366.69 K) was 71.1 ± 0.3 kPa, the “vapor or sublimation pressure” value ([2]; 369.78 K) was 78.3 ± 0.3 kPa and the “vapor or sublimation pressure” value ([2]; 374.39 K) was 90 ± 0.3 kPa. For the same molecule, the “vapor or sublimation pressure” value ([2]; 377.89 K) was 99.8 ± 0.3 kPa.
Work on CC(=O)O [acetic acid] yielded a refractive index [1] of 1.37203 ± 0.001.
CC(C)=O [acetone] gave a refractive index [1] of 1.3555 ± 0.001.
